We go through three molecules from patent US20220218809A1, “IDO ACTIVITY AS A MARKER OF TUMOR IMMUNE ESCAPE AND IDO INHIBITORS AS A MEANS OF ENHANCING T CELLS RESPONSE TO ANTIGEN SPECIFIC VACCINE” (Wisconsin Alumni Research Foundation, priority 2018, published 2022).

In assay [1] the test system is PAP-specific IFNγ-secreting T cells (PBMC). The assay is described as follows: IFNγ ELISPOT of patient PBMC stimulated with PAP antigen. It counts as cell-based, human. To be noted: PBMC from 22 patients after vaccine and pembrolizumab; IDO enzyme 5 ug/mL or 1-MDT 2 mM; 48 hours; changes not statistically significant. As for the experimental part: ELISPOT for measuring IFNγ release was performed as previously described (21). For these analyses, cryopreserved PBMC were thawed, and cultured with PAP protein antigen (Fitzgerald Industries, Acton, Mass.), media alone, or phytohemaglutinin (PHA). Stimulations were also conducted in the presence of IDO enzyme (5 ug/mL) or 1-MDT (2 mM). After 48 hours, plates were developed and spots enumerated using an automated ELISPOT reader (ImmunoSpot, CTL, Shaker Heights, Ohio).
IDO activity is associated with modest decrease in vaccine antigen-specific T-cell function.

The test system of the next assay is T-cell activation. To be noted: literature (ref 22); cited from earlier work.
A further assay concerns IDO activity. The assay is described as follows: Serum kynurenine-to-tryptophan (kyn:trp) ratio as measure of IDO activity in treated mCRPC patients. It is filed as in vivo, human. To be noted: patients with mCRPC. As to the method: Tryptophan and kynurenine concentrations were measured directly in serum samples using a clinically validated LC/MS method. All analysis was performed by Worldwide Clinical Trials (Morrisville, N.C.) by personnel blinded to the sample source.
Patients with prostate cancer treated with an anti-tumor vaccine and/or PD-1 develop increased IDO activity and expression. […] Because IDO is also an IFNγ-regulated gene, we questioned whether prostate cancer immunotherapy similarly elicited increases in IDO expression. We have recently reported the results of a trial in which patients with mCRPC were treated with a DNA vaccine encoding PAP alone for 12 weeks, followed by pembrolizumab over the subsequent 12 weeks, or were treated with both agents for 12 weeks (17). Sera was assessed for kynurenine and tryptophan concentrations at baseline and at 12 and 24 weeks, effectively permitting an analysis of changes in IDO activity following treatment with vaccine alone, pembrolizumab alone, or the combination. […] IFNγ concentration was also directly evaluated in sera samples.

Take `Cn1cc(C[C@H](N)C(=O)O)c2ccccc21` [1-methyltryptophan]: the “detection of PAP-specific IFNγ-secreting cells by ELISPOT” value in assay [1] is “increased the detection of IFNγ-secreting PAP-specific cells”. Also, the “effect on T-cell activation in vitro” value in the assay on T-cell activation is on record as “enhance T-cell activation in vitro”.
As for “IDO enzyme: indoleamine 2,3 dioxygenase enzyme added to the PBMC cultures”, the “detection of PAP-specific IFNγ-secreting cells by ELISPOT” value in assay [1] is on record as “tended to suppress”.
As for pembrolizumab, in the assay with IDO activity (after 12 weeks of treatment), the “median kyn:trp ratio post-treatment” value stood at 0.066. Further, in the assay on IDO activity (before the 12-week treatment period), the “median kyn:trp ratio pre-treatment” value is given as 0.061.
